What was measured:
[1] = double amidation of dimethyl bis(oxyacetate) diester with alpha,omega-diamine (aminolysis of methyl ester, no additive), 1 bar, 168 h; settings: the molecule shown is the open-chain precursor, MeOH, 30.0 mM, 25.0 °C, 2 steps, scale: mol% diamide
[2] = double amidation of dimethyl bis(oxyacetate) diester with alpha,omega-diamine (aminolysis of methyl ester, no additive), 10 kbar, 24 h; settings: the molecule shown is the open-chain precursor, MeOH, 30.0 mM, 25.0 °C, 2 steps, scale: mol% diamide

COC(=O)COc1ccc(OCC(=O)NCCCOCCOCCOCCCN)cc1 [3{3,3}]
ring closure, monomer to dimer ([1]; 25-membered ring): 89
ring closure, monomer to dimer ([2]; 25-membered ring): 79

COC(=O)COc1ccccc1OCC(=O)NCCCOCCOCCOCCCN [3{1,3}]
ring closure, monomer to dimer ([1]; 23-membered ring): 88
ring closure, monomer to dimer ([2]; 23-membered ring): 76

COC(=O)COc1cccc(OCC(=O)NCCOCCN)c1 [3{2,1}]
ring closure, monomer to dimer ([1]; 16-membered ring): 77
ring closure, monomer to dimer ([2]; 16-membered ring): 68.5

COC(=O)COc1ccccc1OCC(=O)NCCCOCCCCOCCCN [3{1,2}]
ring closure, monomer to dimer ([1]; 22-membered ring): 85
ring closure, monomer to dimer ([2]; 22-membered ring): 78

COC(=O)COc1cccc(OCC(=O)NCCCOCCCCOCCCN)c1 [3{2,2}]
ring closure, monomer to dimer ([1]; 23-membered ring): 85
ring closure, monomer to dimer ([2]; 23-membered ring): 76.5

COC(=O)COc1cccc(OCC(=O)NCCCOCCOCCOCCCN)c1 [3{2,3}]
ring closure, monomer to dimer ([1]; 24-membered ring): 95
ring closure, monomer to dimer ([2]; 24-membered ring): 78

COC(=O)COc1ccc(OCC(=O)NCCCOCCCCOCCCN)cc1 [3{3,2}]
ring closure, monomer to dimer ([1]; 24-membered ring): 85
ring closure, monomer to dimer ([2]; 24-membered ring): 81

COC(=O)COc1ccccc1OCC(=O)NCCOCCN [3{1,1}]
ring closure, monomer to dimer ([1]; 15-membered ring): 99.5
ring closure, monomer to dimer ([2]; 15-membered ring): 95

COC(=O)COc1ccc(OCC(=O)NCCOCCN)cc1 [3{3,1}]
ring closure, monomer to dimer ([1]; 17-membered ring): 33
ring closure, monomer to dimer ([2]; 17-membered ring): 16.5
